Source: ChEMBL document CHEMBL1201862, “PubChem BioAssay data set” (2004)
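How tested: cells in 96-well plates exposed to compound for 48 hours at five concentrations. GI50 is the concentration that inhibits growth by half.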 Activity calls are given as the source filed them. Cut-off read from the data, not from the text of the source: active = GI50 up to about 1.1 µM and inactive = higher.

How the values were obtained:
Experiment in all cases: NCI anticancer screen, dose series, 48 h
MDA-MB-435 = system: MDA-MB-435
SN12C = system: SN12C
NCI-H460 = system: NCI-H460
SK-OV-3 = system: SK-OV-3
RXF 393 = system: RXF 393
MDA-N = system: MDA-N
786-0 = system: 786-0
SK-MEL-5 = system: SK-MEL-5
A549 = system: A549
CCRF-CEM = system: CCRF-CEM
TK-10 = system: TK-10
SF-295 = system: SF-295
U-251 = system: U-251
SNB-75 = system: SNB-75
OVCAR-4 = system: OVCAR-4
HOP-92 = system: HOP-92
OVCAR-3 = system: OVCAR-3
BT-549 = system: BT-549
CAKI-1 = system: CAKI-1

Measured: GI50

O=C(C/N=C(\CN(c1ccccc1)c1ccccc1)Oc1ccc(Cl)cc1Cl)n1ccnc1
inactive: MDA-MB-435 > 100 µM | SN12C > 100 µM | NCI-H460 > 100 µM | SK-OV-3 > 100 µM | RXF 393 > 100 µM | MDA-N > 100 µM | 786-0 > 100 µM | SK-MEL-5 > 100 µM | A549 > 100 µM | CCRF-CEM > 100 µM | TK-10 > 100 µM | SF-295 > 100 µM | U-251 > 100 µM | SNB-75 > 100 µM | OVCAR-4 > 100 µM | HOP-92 63 µM | OVCAR-3 > 100 µM | BT-549 > 100 µM

COc1ccc(N2C(N)=C(C#N)C(C#N)(C#N)C2c2cccc([N+](=O)[O-])c2)cc1 (centres undefined)
inactive: MDA-MB-435 16.9 µM | SN12C 16.1 µM | SK-OV-3 20.2 µM | RXF 393 9.23 µM | MDA-N 17.3 µM | 786-0 14.5 µM | CAKI-1 2.61 µM | SK-MEL-5 13.4 µM | A549 18.3 µM | CCRF-CEM 3.05 µM | TK-10 16.6 µM | SF-295 19.1 µM | U-251 17.4 µM | SNB-75 18.8 µM | OVCAR-4 17.7 µM | HOP-92 12.9 µM | OVCAR-3 15.4 µM | BT-549 17.9 µM

O=C1c2ccccc2CN1c1ccc(O)cc1
inactive: MDA-MB-435 > 100 µM | SN12C > 100 µM | NCI-H460 > 100 µM | SK-OV-3 > 100 µM | RXF 393 > 100 µM | MDA-N > 100 µM | 786-0 > 100 µM | CAKI-1 > 100 µM | SK-MEL-5 > 100 µM | A549 > 100 µM | CCRF-CEM > 100 µM | TK-10 > 100 µM | SF-295 > 100 µM | U-251 > 100 µM | OVCAR-4 > 100 µM | HOP-92 > 100 µM | OVCAR-3 > 100 µM | BT-549 > 100 µM

COc1cc(/C=C2\C(=O)N(c3ccccc3Cl)C(c3ccccc3)S2(=O)=O)cc(OC)c1OC (centres undefined)
inactive: MDA-MB-435 33.3 µM | SN12C 20.8 µM | NCI-H460 52.2 µM | SK-OV-3 30.7 µM | RXF 393 19.5 µM | MDA-N 15.2 µM | 786-0 31.2 µM | CAKI-1 59.7 µM | SK-MEL-5 18.6 µM | A549 36.8 µM | CCRF-CEM 16 µM | TK-10 62.7 µM | SF-295 34 µM | U-251 24.2 µM | OVCAR-4 57.3 µM | HOP-92 41.3 µM | OVCAR-3 47.4 µM | BT-549 36 µM

CC(=O)c1ccc2c3c1[C@H]1O[C@H]1c1cccc(c1-3)[C@@H]1O[C@H]21
inactive: MDA-MB-435 1.79 µM | SN12C 1.85 µM | SK-OV-3 5.32 µM | RXF 393 1.93 µM | MDA-N 2.32 µM | 786-0 2 µM | CAKI-1 1.29 µM | SK-MEL-5 2.17 µM | A549 2.92 µM | CCRF-CEM 1.61 µM | TK-10 4.21 µM | SF-295 4.52 µM | U-251 1.93 µM | SNB-75 1.93 µM | OVCAR-4 1.67 µM | HOP-92 1.57 µM | OVCAR-3 3.27 µM | BT-549 1.87 µM

O=C(N/N=C(COc1ccc(Cl)cc1)\N=C\c1ccncc1)c1ccncc1
inactive: MDA-MB-435 > 100 µM | SN12C > 100 µM | NCI-H460 > 100 µM | SK-OV-3 > 100 µM | RXF 393 57.1 µM | MDA-N > 100 µM | 786-0 > 100 µM | CAKI-1 > 100 µM | A549 > 100 µM | CCRF-CEM > 100 µM | TK-10 > 100 µM | SF-295 > 100 µM | U-251 > 100 µM | OVCAR-4 > 100 µM | HOP-92 43.3 µM | OVCAR-3 > 100 µM | BT-549 > 100 µM

O=P(OCc1ccccc1)(OCc1ccccc1)C(O)/C=C/c1ccccc1 (centres undefined)
inactive: MDA-MB-435 17.3 µM | SN12C 19.8 µM | SK-OV-3 45.1 µM | RXF 393 33.8 µM | MDA-N 17.3 µM | 786-0 17.7 µM | CAKI-1 35.7 µM | SK-MEL-5 19.3 µM | A549 32.9 µM | SF-295 20.3 µM | U-251 13.1 µM | OVCAR-4 21.4 µM | HOP-92 19.4 µM | OVCAR-3 20.9 µM | BT-549 28.2 µM

O=C(N/N=C(COc1cccc(Cl)c1)\N=C\c1cccnc1)c1ccncc1
inactive: MDA-MB-435 > 100 µM | SN12C > 100 µM | NCI-H460 > 100 µM | SK-OV-3 > 100 µM | RXF 393 35.3 µM | MDA-N > 100 µM | 786-0 > 100 µM | CAKI-1 73.5 µM | A549 > 100 µM | CCRF-CEM > 100 µM | TK-10 > 100 µM | SF-295 > 100 µM | U-251 > 100 µM | SNB-75 18.5 µM | OVCAR-4 84.7 µM | HOP-92 24.9 µM | OVCAR-3 > 100 µM | BT-549 > 100 µM

CCN(CC)c1nc(NC2CCCCC2)c2nc(N(CC)CC)nc(NC3CCCCC3)c2n1
inactive: MDA-MB-435 > 100 µM | SN12C > 100 µM | NCI-H460 > 100 µM | SK-OV-3 > 100 µM | RXF 393 33.3 µM | MDA-N > 100 µM | 786-0 > 100 µM | SK-MEL-5 > 100 µM | A549 > 100 µM | CCRF-CEM > 100 µM | TK-10 > 100 µM | SF-295 > 100 µM | U-251 > 100 µM | HOP-92 38.7 µM | OVCAR-3 > 100 µM | BT-549 > 100 µM

CN(C)CCCNc1ncnc2c1ncn2C1OC(CO)C(O)C1O (centres undefined)
inactive: MDA-MB-435 > 100 µM | SN12C > 100 µM | NCI-H460 > 100 µM | SK-OV-3 > 100 µM | RXF 393 > 100 µM | MDA-N > 100 µM | 786-0 > 100 µM | CAKI-1 > 100 µM | SK-MEL-5 > 100 µM | A549 > 100 µM | CCRF-CEM > 100 µM | TK-10 > 100 µM | SF-295 > 100 µM | U-251 > 100 µM | OVCAR-4 > 100 µM | HOP-92 > 100 µM | OVCAR-3 > 100 µM | BT-549 92.7 µM

CN1CCCCCC(=N\O)/C(=N/O)CCCCC1
inactive: MDA-MB-435 > 100 µM | SN12C > 100 µM | NCI-H460 > 100 µM | RXF 393 > 100 µM | MDA-N > 100 µM | 786-0 > 100 µM | CAKI-1 > 100 µM | SK-MEL-5 > 100 µM | A549 > 100 µM | CCRF-CEM > 100 µM | TK-10 > 100 µM | SF-295 > 100 µM | U-251 > 100 µM | SNB-75 > 100 µM | HOP-92 > 100 µM | OVCAR-3 > 100 µM | BT-549 80.7 µM

COc1ccc(CC(O)CN2CCOCC2)cc1 (centres undefined)
inactive: MDA-MB-435 > 100 µM | SN12C > 100 µM | NCI-H460 > 100 µM | RXF 393 > 100 µM | MDA-N > 100 µM | 786-0 > 100 µM | CAKI-1 > 100 µM | SK-MEL-5 > 100 µM | A549 > 100 µM | CCRF-CEM > 100 µM | TK-10 > 100 µM | SF-295 > 100 µM | U-251 > 100 µM | OVCAR-4 > 100 µM | HOP-92 > 100 µM | OVCAR-3 > 100 µM | BT-549 > 100 µM

COc1cc(OC)cc(C(=O)CC(=O)c2cc(OC)cc(OC)c2)c1
inactive: MDA-MB-435 87.5 µM | SN12C > 100 µM | NCI-H460 56.9 µM | SK-OV-3 > 100 µM | RXF 393 > 100 µM | MDA-N > 100 µM | 786-0 > 100 µM | SK-MEL-5 > 100 µM | A549 > 100 µM | CCRF-CEM 63.5 µM | TK-10 > 100 µM | SF-295 > 100 µM | U-251 > 100 µM | SNB-75 > 100 µM | HOP-92 > 100 µM | OVCAR-3 > 100 µM | BT-549 > 100 µM

O=S(=O)(O)c1ccc(/N=N/c2ccc(/N=N/c3c(O)c(S(=O)(=O)O)cc4cc(S(=O)(=O)O)ccc34)cc2)cc1
inactive: MDA-MB-435 > 100 µM | SN12C > 100 µM | NCI-H460 > 100 µM | SK-OV-3 > 100 µM | RXF 393 > 100 µM | MDA-N > 100 µM | 786-0 > 100 µM | CAKI-1 > 100 µM | SK-MEL-5 > 100 µM | A549 > 100 µM | CCRF-CEM > 100 µM | TK-10 > 100 µM | SF-295 > 100 µM | U-251 > 100 µM | OVCAR-4 > 100 µM | HOP-92 > 100 µM | OVCAR-3 > 100 µM | BT-549 > 100 µM

Cc1cc(-c2nc3c(O)cccc3s2)ccc1N
inactive: MDA-MB-435 17.7 µM | SN12C 27.2 µM | NCI-H460 30.5 µM | SK-OV-3 39.1 µM | RXF 393 67.9 µM | MDA-N 25.4 µM | 786-0 29.3 µM | CAKI-1 21.3 µM | SK-MEL-5 33.2 µM | A549 19.1 µM | CCRF-CEM 27.3 µM | TK-10 26.8 µM | SF-295 25.9 µM | U-251 29.6 µM | SNB-75 83.6 µM | HOP-92 18.8 µM | OVCAR-3 26.5 µM | BT-549 22.1 µM

NS(=O)(=O)c1ccc(CNc2nc(-c3cccs3)nc3ccc(I)cc23)cc1
inactive: MDA-MB-435 14.6 µM | SN12C 22.9 µM | NCI-H460 15 µM | SK-OV-3 22.6 µM | RXF 393 19.6 µM | MDA-N 19.5 µM | 786-0 17.5 µM | CAKI-1 6.15 µM | SK-MEL-5 14.1 µM | A549 12.5 µM | TK-10 9.16 µM | SF-295 17.9 µM | U-251 18.1 µM | SNB-75 21.6 µM | OVCAR-4 10.7 µM | HOP-92 16 µM | OVCAR-3 11.2 µM | BT-549 12.7 µM
